Data on 50 compounds can be found in US20110183978A1, “Phenylpyri(mi)dinylazoles” (Bayer CropScience AG, priority 2009, published 2011).

The nature of this data set: physchem.
The mark [1] stands for this setting: LogPA (logP of the stated pure compound or, in a mixture, of the main isomer, 1-substituted 3-aryl-1H-pyrazole).

With `COc1cc(F)ccc1-c1c(-c2ccncc2)cnn1C1CCCCO1` (stereo not drawn) [[X-14], 4-[5-(4-fluoro-2-methoxyphenyl)-1-(tetrahydro-2H-pyran-2-yl)-1H-pyrazol-4-yl]pyridine], the chromatographic logP (pH 2.3, LogP (pH 2.3)) turned out to be 1.26. Consider `Fc1cccc(F)c1-c1n[nH]cc1-c1ccncc1` [[XXVII-1], 4-[3-(2,6-Difluorophenyl)-1H-pyrazol-4-yl]pyridine], for which the chromatographic logP (pH 2.7, logP (pH 2.7)) came to 1.54. As to `Fc1ccc(-c2nn(-c3cc(C(F)(F)F)ncn3)cc2-c2ccncc2)cc1` [Compound 112], the chromatographic logP under setting [1] was determined as 2.73. The compound `CC(C)Cn1cc(-c2ccnc(N(C(=O)C(C)C)C(C)C)n2)c(-c2ccc(F)cc2)n1` [Compound 185] registered a chromatographic logP (LogPA) of 4.25. Still for that read-out and setting: with `CCC(=O)Nc1cc(-c2c(-c3ccc(F)cc3)nn(C(C)C)c2C(F)(F)F)ccn1` [Compound 304] the figure was 4.07; with `Cc1csc2c(-c3cn(CC(C)C)nc3-c3ccc(F)cc3)ncnc12` [Compound 288], 3.85. As to `Fc1ccc(-c2nn(Cc3cccc(-c4ccccc4)c3)cc2-c2ccncc2)cc1` [Compound 125], under setting [1], the chromatographic logP is 2.38.

Consider `COCC(=O)Nc1cc(B2OC(C)(C)C(C)(C)O2)ccn1` [[XV-a-1], 2-Methoxy-N-[4-(4,4,5,5-tetramethyl-1,3,2-dioxaborolan-2-yl)pyridin-2-yl]acetamide], for which the chromatographic logP (pH 2.7, logP (pH 2.7)) was -0.18. For the compound `CC(C)(C)OC(=O)N1CCC(n2cc(Br)c(-c3ccc(F)cc3)n2)CC1` [[VI-27], Tert-butyl 4-[4-bromo-3-(4-fluorophenyl)-1H-pyrazol-1-yl]piperidin-1-carboxylate], the chromatographic logP was determined as 4.77 (pH 2.3, LogP (pH 2.3)) and 4.77 (pH 2.7, logP (pH 2.7)).

Consider `CC(C)n1ncc(-c2ccncc2)c1-c1c(F)cccc1F` [[I-d-2], 4-[5-(2,6-Difluorophenyl)-1-isopropyl-1H-pyrazol-4-yl]pyridine], for which the chromatographic logP (pH 2.7, logP (pH 2.7)) stood at 1.54. Regarding `FC(F)(F)Oc1ccc(-c2c(-c3ccncc3)cnn2C2CCCCO2)cc1` (stereo not drawn) [Compound 71], the chromatographic logP under setting [1] amounted to 1.78. On the same count and under the same terms, the same measure for `Fc1ccc(-c2nn(C3CCCCO3)cc2-c2cc(N3CCOCC3)ncn2)cc1` (stereo not drawn) [Compound 52]: 1.49. On to `CC(C)(C)c1ccc(-c2c(-c3ccncc3)cnn2C2CCCCO2)cc1` (stereo not drawn) [[X-9], 4-[5-(4-tert-butylphenyl)-1-(tetrahydro-2H-pyran-2-yl)-1H-pyrazol-4-yl]pyridine], for which, for the setting “pH 2.3, LogP (pH 2.3)”, the chromatographic logP worked out at 2.02. Still for that read-out and setting: the same measure for `c1ccc(Oc2cccc(-c3c(-c4ccncc4)cnn3C3CCCCO3)c2)cc1` (stereo not drawn) [[X-16], 4-[5-(3-phenoxyphenyl)-1-(tetrahydro-2H-pyran-2-yl)-1H-pyrazol-4-yl]pyridine]: 1.88. For the setting “pH 2.7, logP (pH 2.7)”, `N#Cc1cccc(Cn2cc(-c3ccncc3)c(-c3ccc(F)cc3)n2)c1` [[I-3], 3-{[3-(4-Fluorophenyl)-4-(pyridin-4-yl)-1H-pyrazol-1-yl]methyl}benzonitrile] returned a chromatographic logP of 1.51. For `Fc1ccc(-c2nn(CC3CC3)cc2Br)cc1` [[VI-18], 4-Bromo-1-(cyclopropylmethyl)-3-(4-fluorophenyl)-1H-pyrazole], the chromatographic logP runs as follows: (pH 2.3, LogP (pH 2.3)) 3.9; (pH 2.7, logP (pH 2.7)) 3.9. Turning to `N#Cc1cccc(Cn2cc(Br)c(-c3ccc(F)cc3)n2)c1` [[VI-12], 3-{[4-Bromo-3-(4-fluorophenyl)-1H-pyrazol-1-yl]methyl}benzonitrile], the chromatographic logP by setting is: (pH 2.3, LogP (pH 2.3)) 3.93; (pH 2.7, logP (pH 2.7)) 3.93.

`CCn1cc(-c2ccnc(NC(=O)c3ccsc3C(F)F)c2)c(-c2ccc(F)cc2)n1` [Compound 334] returned a chromatographic logP (LogPA) of 3.27. Take `FC(F)(F)c1cccc(-c2nn(C3CCCCO3)cc2-c2ccncc2)c1` (stereo not drawn) [Compound 42]: the chromatographic logP under setting [1] turned out to be 1.84. `CC(C)Cn1cc(Br)c(-c2ccc(F)cc2)n1` [[VI-4], 4-Bromo-3-(4-fluorophenyl)-1-isobutyl-1H-pyrazole]: the chromatographic logP is, setting by setting: (pH 2.3, LogP (pH 2.3)) 4.34; (pH 2.7, logP (pH 2.7)) 4.34. On to `CC(C)Cn1cc(-c2ccnc(NC(C)C3CC3)n2)c(-c2ccc(F)cc2)n1` (stereo not drawn) [Compound 372], for which the chromatographic logP (LogPA) was 2.73.

`CC(C)Nc1nccc(-c2c[nH]nc2-c2ccc(F)cc2)n1` [Compound 172] showed a chromatographic logP (LogPA) of 1.37. Same read-out and setting: the same measure for `CC(C)Cn1cc(-c2ccnc(N(C(=O)C(C)(C)C(=O)C(C)C)C(C)C)n2)c(-c2ccc(F)cc2)n1` [Compound 186]: 3.02. Take `Fc1ccc(-c2nn(-c3ccc(C(F)(F)F)cn3)cc2-c2ccncc2)cc1` [Compound 79]: under setting [1], the chromatographic logP came out at 2.64. As for `CC(C)C(=O)Nc1cc(B2OC(C)(C)C(C)(C)O2)ccn1` [[XV-a-4], 2-Methyl-N-[4-(4,4,5,5-tetramethyl-1,3,2-dioxaborolan-2-yl)pyridin-2-yl]propanamide], where the note is “pH 2.7, logP (pH 2.7)”, the chromatographic logP stood at 0.04. Turning to `CC(C)n1nc(-c2ccc(F)cc2)c(Br)c1OC(F)F` [[VI-b-2], 4-Bromo-5-(difluoromethoxy)-3-(4-fluorophenyl)-1-isopropyl-1H-pyrazole], the chromatographic logP turned out to be 4.61 (pH 2.3, LogP (pH 2.3)) and 4.61 (pH 2.7, logP (pH 2.7)). Take `Fc1ccc(-c2nn(Cc3ccc(-c4ccccc4)cc3)cc2-c2ccncc2)cc1` [Compound 131]: the chromatographic logP under setting [1] was determined as 2.39.

Take `Cn1cc(-c2ccnc(NC(=O)CCc3ccccc3)c2)c(-c2ccc(F)cc2)n1` [Compound 343]: where the note is “LogPA”, the chromatographic logP was determined as 2.54. As to `CC(=O)OCCn1cc(-c2ccncc2)c(-c2ccc(F)cc2)n1` [Compound 145], the chromatographic logP under setting [1] is 1.05.

Take `Clc1cccc(-c2c(-c3ccncc3)cnn2C2CCCCO2)c1Cl` (stereo not drawn) [Compound 76, 4-[5-(2,3-dichlorophenyl)-1-(tetrahydro-2H-pyran-2-yl)-1H-pyrazol-4-yl]pyridine]: under setting [1], the chromatographic logP was 1.66. In the case of `CC1(C)OB(c2cn(CC(F)F)nc2-c2ccc(F)cc2)OC1(C)C` [[V-4], 1-(2,2-difluoroethyl)-3-(4-fluorophenyl)-4-(4,4,5,5-tetramethyl-1,3,2-dioxaborolan-2-yl)-1H-pyrazole], the chromatographic logP was 3.84 (pH 2.3, LogP (pH 2.3)) and 3.84 (pH 2.7, logP (pH 2.7)). Take `Cc1cc(-c2c(-c3ccncc3)cnn2C2CCCCO2)ccc1F` (stereo not drawn) [Compound 55]: under setting [1], the chromatographic logP is 1.47. For the setting “pH 2.3, LogP (pH 2.3)”, `CS(=O)(=O)c1ccc(-c2c(-c3ccncc3)cnn2C2CCCCO2)cc1` (stereo not drawn) [[X-17], 4-{5-[4-(methylsulphonyl)phenyl]-1-(tetrahydro-2H-pyran-2-yl)-1H-pyrazol-4-yl}pyridine] yielded a chromatographic logP of 0.96.

With `Fc1ccc(-c2nn(CCc3ccccc3Cl)cc2-c2ccncc2)cc1` [Compound 119], the chromatographic logP under setting [1] stood at 2.04. `CCOC(=O)Nc1cc(B2OC(C)(C)C(C)(C)O2)ccn1` [[XV-a-6], Ethyl [4-(4,4,5,5-tetramethyl-1,3,2-dioxaborolan-2-yl)pyridin-2-yl]carbamate]: the chromatographic logP (pH 2.7, logP (pH 2.7)) came out at 0. Take `Cc1csc2c(-c3cn(CC4CC4)nc3-c3ccc(F)cc3)ncnc12` [Compound 289]: for the setting “LogPA”, the chromatographic logP worked out at 3.45. `c1ccc(Oc2ccc(-c3c(-c4ccncc4)cnn3C3CCCCO3)cc2)cc1` (stereo not drawn) [[X-10], 4-[5-(4-phenoxyphenyl)-1-(tetrahydro-2H-pyran-2-yl)-1H-pyrazol-4-yl]pyridine]: the chromatographic logP (pH 2.3, LogP (pH 2.3)) was 1.88. For the compound `COCCn1cc(B2OC(C)(C)C(C)(C)O2)c(-c2ccc(F)cc2)n1` [[V-2], 3-(4-Fluorophenyl)-1-(2-methoxyethyl)-4-(4,4,5,5-tetramethyl-1,3,2-dioxaborolan-2-yl)-1H-pyrazole], the chromatographic logP came out at 3.58 (pH 2.3, LogP (pH 2.3)) and 3.58 (pH 2.7, logP (pH 2.7)).

Regarding `CN(C)c1cccc(-c2c(-c3ccncc3)cnn2C2CCCCO2)c1` (stereo not drawn) [[X-21], N,N-dimethyl-3-[4-(pyridin-4-yl)-1-(tetrahydro-2H-pyran-2-yl)-1H-pyrazol-5-yl]aniline], the chromatographic logP (pH 2.3, LogP (pH 2.3)) turned out to be 1.33. `CC(CC#N)n1cc(Br)c(-c2ccc(F)cc2)n1` (stereo not drawn) [[VI-21], 3-[4-Bromo-3-(4-fluorophenyl)-1H-pyrazol-1-yl]butanonitrile]: the chromatographic logP by setting is: (pH 2.3, LogP (pH 2.3)) 3.08; (pH 2.7, logP (pH 2.7)) 3.08. For the compound `c1cc(-c2cnn(C3CCCCO3)c2-c2ccc(N3CCOCC3)cc2)ccn1` (stereo not drawn) [[X-15], 4-{4-[4-(pyridin-4-yl)-1-(tetrahydro-2H-pyran-2-yl)-1H-pyrazol-5-yl]phenyl}morpholine], the chromatographic logP (pH 2.3, LogP (pH 2.3)) amounted to 1.26. `CC(C)n1cc(-c2ccncc2)c(-c2c(F)cccc2F)n1` [[I-d-1], 4-[3-(2,6-Difluorophenyl)-1-isopropyl-1H-pyrazol-4-yl]pyridine] gave a chromatographic logP (pH 2.7, logP (pH 2.7)) of 1.4.

For the compound `COc1ccc(-c2nn(C3CCCCO3)cc2-c2ccnc(C)c2)cc1` (stereo not drawn) [Compound 73], under setting [1], the chromatographic logP came to 1.33.

Turning to `Cn1nc(-c2ccc(F)cc2O)c(Br)c1OC(F)F` [[VI-c-1], 2-[4-Bromo-5-(difluoromethoxy)-1-methyl-1H-pyrazol-3-yl]-5-fluorophenol], the chromatographic logP turned out to be 3.48 (pH 2.3, LogP (pH 2.3)) and 3.48 (pH 2.7, logP (pH 2.7)). Where the note is “pH 2.7, logP (pH 2.7)”, `COc1cc(F)ccc1-c1nn(C)c(OC(F)F)c1Br` [[VI-b-4], 4-Bromo-5-(difluoromethoxy)-3-(4-fluoro-2-methoxyphenyl)-1-methyl-1H-pyrazole] gave a chromatographic logP of 3.15. `CSc1nccc(-c2c[nH]nc2-c2ccc(F)cc2)n1` [[XXXIX-1], 4-[3-(4-Fluorophenyl)-1H-pyrazol-4-yl]-2-(methylsulphanyl)pyrimidine]: the chromatographic logP (pH 2.7, logP (pH 2.7)) was determined as 2.28. Turning to `CC(C)n1cc(-c2ncnc3c2CCCN3)c(-c2ccc(F)cc2)n1` [Compound 311], the chromatographic logP (LogPA) worked out at 1.29.

On to `COCCn1cc(-c2ccnc(N)c2)c(-c2ccc(F)cc2)n1` [[III-2], 4-[3-(4-Fluorophenyl)-1-(2-methoxyethyl)-1H-pyrazol-4-yl]pyridin-2-amine], for which the chromatographic logP amounted to 0.98 (pH 2.3, LogP (pH 2.3)) and 0.98 (pH 2.7, logP (pH 2.7)). As for `CC(C)C(=O)Nc1cc(Br)ccn1` [[IV-c-1], N-(4-bromopyridin-2-yl)-2-methylpropanamide], under “pH 2.7, logP (pH 2.7)”, the chromatographic logP was 2.09. In turn, `COCCn1cc(-c2ccnc(NC(C)C)n2)c(-c2ccc(F)cc2)n1` [Compound 358] displayed a chromatographic logP (LogPA) of 1.79.
